In ChEMBL document CHEMBL1926617, “Antifungal activities of novel non-azole molecules against S. cerevisiae and C. albicans” (Eur J Med Chem, 2012):
Values after ≈ are worked out from the molar mass of the structure shown. Active and inactive are the calls of the source. No cut-off for these calls is given here.

What was measured:
Saccharomyces cerevisiae [1] = experiment: Antifungal activity against Saccharomyces cerevisiae ATCC 24657 assessed as growth inhibition after 24 to 48 hrs by agar plate bioassay; format: functional
Candida albicans [2] = experiment: Antifungal activity against Candida albicans assessed as morphogenetic transformation after 3 hrs by phase-contrast microscopy; format: functional
Saccharomyces cerevisiae [3] = experiment: Fungistatic activity against Saccharomyces cerevisiae ATCC 24657 assessed as cell proliferation compound after 24 to 48 hrs by agar plate bioassay; format: functional, organism-based
Saccharomyces cerevisiae [4] = experiment: Fungistatic activity against Saccharomyces cerevisiae ATCC 24657 assessed as cell proliferation compound after 24 to 48 hrs by spectrophotometric bioassay; format: functional, organism-based
Cytochrome P450 2C19 = Cytochrome P450 2C19 (Homo sapiens, UniProt P33261); experiment: Inhibition of human recombinant CYP2C19; format: ADME
Cytochrome P450 2D6 = Cytochrome P450 2D6 (Homo sapiens, UniProt P10635); experiment: Inhibition of human recombinant CYP2D6; format: ADME
Cytochrome P450 1A2 = target: T1, Cytochrome P450 1A2 (Homo sapiens, UniProt P05177); experiment: Inhibition of human recombinant CYP1A2; format: ADME
T1 sequence (P05177 whole entry): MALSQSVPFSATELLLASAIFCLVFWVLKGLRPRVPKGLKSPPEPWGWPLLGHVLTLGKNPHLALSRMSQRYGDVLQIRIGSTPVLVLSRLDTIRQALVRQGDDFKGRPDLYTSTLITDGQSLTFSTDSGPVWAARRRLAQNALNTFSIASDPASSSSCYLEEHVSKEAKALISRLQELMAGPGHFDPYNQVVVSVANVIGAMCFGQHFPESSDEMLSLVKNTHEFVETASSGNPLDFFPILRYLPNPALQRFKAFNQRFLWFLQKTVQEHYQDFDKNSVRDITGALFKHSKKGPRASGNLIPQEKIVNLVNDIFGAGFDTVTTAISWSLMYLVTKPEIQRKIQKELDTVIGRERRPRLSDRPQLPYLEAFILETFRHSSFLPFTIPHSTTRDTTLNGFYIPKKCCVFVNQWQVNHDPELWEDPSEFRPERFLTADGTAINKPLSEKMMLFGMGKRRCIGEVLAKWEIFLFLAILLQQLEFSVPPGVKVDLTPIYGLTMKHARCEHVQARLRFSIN

Cytochrome P450 3A4 = Cytochrome P450 3A4 (Homo sapiens, UniProt P08684); experiment: Inhibition of human recombinant CYP3A4; format: ADME
Candida albicans [5] = experiment: Antifungal activity against Candida albicans ATCC 32032 assessed as growth inhibition after 24 to 48 hrs by agar plate bioassay; format: functional
Cytochrome P450 2C9 = Cytochrome P450 2C9 (Homo sapiens, UniProt P11712); experiment: Inhibition of human recombinant CYP2C9; format: ADME
Saccharomyces cerevisiae [6] = experiment: Antifungal activity against Saccharomyces cerevisiae ATCC 24657 assessed as growth inhibition at 31.2 uM after 24 to 48 hrs by agar plate bioassay; format: functional, organism-based
Saccharomyces cerevisiae [7] = experiment: Antifungal activity against Saccharomyces cerevisiae ATCC 24657 assessed as growth inhibition at 31.2 uM after 24 to 48 hrs by spectrophotometric bioassay; format: functional, organism-based

Cytochrome P450 3A4, sequence (P08684 whole entry): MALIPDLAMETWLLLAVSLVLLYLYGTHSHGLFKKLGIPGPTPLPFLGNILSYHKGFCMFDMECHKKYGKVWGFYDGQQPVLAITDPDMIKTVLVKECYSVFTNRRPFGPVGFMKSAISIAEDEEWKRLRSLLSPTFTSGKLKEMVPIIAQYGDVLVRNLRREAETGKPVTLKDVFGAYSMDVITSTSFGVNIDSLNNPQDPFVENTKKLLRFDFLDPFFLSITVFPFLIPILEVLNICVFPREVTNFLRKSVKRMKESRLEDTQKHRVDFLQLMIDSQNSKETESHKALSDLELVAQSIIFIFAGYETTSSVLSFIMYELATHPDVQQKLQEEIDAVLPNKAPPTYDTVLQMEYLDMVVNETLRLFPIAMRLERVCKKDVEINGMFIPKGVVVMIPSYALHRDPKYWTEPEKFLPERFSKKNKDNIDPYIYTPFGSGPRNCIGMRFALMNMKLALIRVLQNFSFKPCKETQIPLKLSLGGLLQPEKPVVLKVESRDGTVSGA
Cytochrome P450 2C9, sequence (P11712 whole entry): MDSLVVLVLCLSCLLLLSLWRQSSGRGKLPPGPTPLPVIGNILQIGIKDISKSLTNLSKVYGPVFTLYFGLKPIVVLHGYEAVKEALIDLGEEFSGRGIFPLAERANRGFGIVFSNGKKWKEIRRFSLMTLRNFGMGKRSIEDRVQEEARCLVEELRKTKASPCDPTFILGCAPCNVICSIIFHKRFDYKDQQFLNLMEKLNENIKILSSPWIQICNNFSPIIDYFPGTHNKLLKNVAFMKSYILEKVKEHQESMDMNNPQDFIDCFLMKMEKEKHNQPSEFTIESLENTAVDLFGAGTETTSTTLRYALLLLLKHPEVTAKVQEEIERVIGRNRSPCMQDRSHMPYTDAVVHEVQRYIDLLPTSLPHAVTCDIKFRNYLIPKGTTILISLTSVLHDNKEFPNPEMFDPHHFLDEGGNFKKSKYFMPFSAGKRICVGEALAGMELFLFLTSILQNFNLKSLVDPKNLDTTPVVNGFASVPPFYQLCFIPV
Cytochrome P450 2D6, sequence (P10635 whole entry): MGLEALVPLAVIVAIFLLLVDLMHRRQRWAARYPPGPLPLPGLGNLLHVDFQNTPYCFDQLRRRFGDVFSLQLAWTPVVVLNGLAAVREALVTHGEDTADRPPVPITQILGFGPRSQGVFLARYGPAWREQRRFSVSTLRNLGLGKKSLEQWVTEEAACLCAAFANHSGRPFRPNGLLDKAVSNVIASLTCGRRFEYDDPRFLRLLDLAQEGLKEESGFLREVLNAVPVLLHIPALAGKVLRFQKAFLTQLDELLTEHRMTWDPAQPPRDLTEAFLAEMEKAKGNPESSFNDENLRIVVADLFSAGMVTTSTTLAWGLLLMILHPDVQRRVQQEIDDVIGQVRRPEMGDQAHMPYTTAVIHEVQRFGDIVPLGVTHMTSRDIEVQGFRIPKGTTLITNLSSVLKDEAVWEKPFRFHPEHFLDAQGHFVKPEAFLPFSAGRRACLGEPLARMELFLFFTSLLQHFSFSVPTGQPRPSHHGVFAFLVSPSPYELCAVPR
Cytochrome P450 2C19, sequence (P33261 whole entry): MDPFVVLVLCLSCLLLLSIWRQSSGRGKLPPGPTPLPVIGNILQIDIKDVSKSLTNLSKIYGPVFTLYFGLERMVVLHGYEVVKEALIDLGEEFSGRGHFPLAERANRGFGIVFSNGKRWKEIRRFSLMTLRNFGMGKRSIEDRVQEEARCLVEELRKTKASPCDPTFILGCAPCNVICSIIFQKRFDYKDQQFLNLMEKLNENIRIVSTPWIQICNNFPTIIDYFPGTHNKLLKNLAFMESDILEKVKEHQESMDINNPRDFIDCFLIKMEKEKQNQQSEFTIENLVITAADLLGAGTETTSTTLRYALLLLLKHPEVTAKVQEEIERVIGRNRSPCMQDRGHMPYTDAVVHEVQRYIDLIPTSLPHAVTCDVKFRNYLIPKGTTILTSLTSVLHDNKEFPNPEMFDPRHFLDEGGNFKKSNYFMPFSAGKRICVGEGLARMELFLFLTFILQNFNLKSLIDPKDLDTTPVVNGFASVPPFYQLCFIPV

Row | SMILES | MIC (Saccharomyces cerevisiae [1]) [µM] | further results
1 | c1ccc(Cc2ccncc2)cc1 | > 200 | MIC50 (Saccharomyces cerevisiae [1]): 100 µM (≈ 16.9 µg/mL)
2 | Cc1ccc(C(=O)N(C)Cc2ccco2)c(C2CCN(C(=O)c3cc(O)nc4ccccc34)CC2)n1 | > 200 | –
3 | OC(Cn1cncn1)(Cn1cncn1)c1ccc(F)cc1F [FLUCONAZOLE] | – | MIC (Candida albicans [2]): 104 µM (≈ 32 µg/mL)
4 | C=CCOc1ccc(/C=C2\CCc3cc(OC)ccc3C2=O)cc1 | > 200 | –
5 | Cc1ccc(C(=O)N(C)Cc2ccco2)c(C2CCN(C(=O)/C=C/c3ccc4c(c3)OCO4)CC2)n1 | > 200 | –
6 | CSc1sc(C(=O)N2CCC3(CCN(C(=O)CNC(=O)c4ccco4)CC3)C2)c2c1C(=O)CCC2 | > 200 | –
7 | CN(CCC#N)c1ccc(C=C(C#N)C#N)cc1 | > 200 | –
8 | Cc1ccc(C(=O)N(C)Cc2ccco2)c(C2CCN(C(=O)/C=C/c3cccs3)CC2)n1 | > 200 | –
9 | COc1ccc(C(=O)CCC(=O)N2CCC(c3nc(C(=O)Nc4ccc(O)c(C)c4C)cs3)CC2)cc1 | > 200 | –
10 | CCCN(CCC)S(=O)(=O)c1ccc(C(=O)N/N=C/c2ccc(N(C)CCC#N)cc2)cc1 | > 200 | –
11 | Cc1nn(C)c(=O)c2noc(/C=C/c3ccsc3)c12 | 120 (≈ 32.8 µg/mL) | MIC50 (Saccharomyces cerevisiae [1]): 35 µM (≈ 9.57 µg/mL); Activity (Saccharomyces cerevisiae [3]): inactive; Activity (Saccharomyces cerevisiae [4]): inactive
12 | COC(C)(C)CCSc1nc2ccc(NC(=O)CCCC(=O)NCc3ccco3)cc2s1 | > 200 | –
13 | Cc1n[nH]c(=O)c(N)c1-c1cc(-c2ccsc2)[nH]n1 | > 200 | –
14 | COc1ccc(-c2sc(/N=C/c3ccc(-c4ccccc4)cc3)c(C#N)c2C)cc1OC | – | IC50 (Cytochrome P450 2C19): 2.3 µM; IC50 (Cytochrome P450 2D6): > 100 µM; IC50 (Cytochrome P450 1A2): 26 µM; IC50 (Cytochrome P450 3A4): > 100 µM; MIC (Candida albicans [5]): 8 µM (≈ 3.51 µg/mL); IC50 (Cytochrome P450 2C9): 1.4 µM
15 | N#CC(C#N)=CNc1ccc2oc3ncccc3c(=O)c2c1 | > 200 | –
16 | FC(F)(F)Oc1ccc(C2c3ccsc3CCN2Cc2ccc3c(c2)CCO3)cc1 (stereo not drawn) | – | MIC50 (Saccharomyces cerevisiae [1]): 120 µM (≈ 51.8 µg/mL)
17 | O=C(/C=C\c1ccco1)NCC(=O)N1CCC(c2nccn2CCc2ccsc2)CC1 | > 200 | –
18 | Cc1ccc(C(=O)CC(Sc2ccc3ccccc3c2)c2ccsc2)cc1 (stereo not drawn) | > 150 | –
19 | COc1ccc(CC2c3cc(OC)c(OC)cc3CCN2C=C(C#N)C#N)cc1OC (stereo not drawn) | > 200 | –
20 | Cc1ccc(Cc2cc(C)ncc2C)c(C)c1 | 100 (≈ 22.5 µg/mL) | MIC50 (Saccharomyces cerevisiae [1]): 14 µM (≈ 3.15 µg/mL)
21 | COc1ccc(-c2sc(/N=C/c3cc(Br)cc(Br)c3O)c(C#N)c2C)cc1OC | – | MIC (Candida albicans [5]): > 100 µM
22 | Cc1nc(C)c(C(=O)N2CCC(c3nc(C(=O)N(CCC#N)Cc4ccco4)cs3)CC2)s1 | > 200 | –
23 | CC(=O)N1CCN(c2ccc(OCC3COC(Cn4ccnc4)(c4ccc(Cl)cc4Cl)O3)cc2)CC1 (stereo not drawn) | – | growth inhibition (GI) (Saccharomyces cerevisiae [6]): Active; Activity (Saccharomyces cerevisiae [3]): inactive; Activity (Saccharomyces cerevisiae [4]): inactive; growth inhibition (GI) (Saccharomyces cerevisiae [7]): Active
24 | N#CCN1CCN(c2nc3ccc(Cl)cc3s2)CC1 | > 200 | MIC50 (Saccharomyces cerevisiae [1]): 27 µM (≈ 7.91 µg/mL)
25 | COC(=O)c1cscc1NC(=O)CC(CC(=O)O)c1ccccc1 (stereo not drawn) | > 200 | –
26 | COc1ccc(NC(=S)N/N=C/c2ccc(N(C)CCC#N)cc2)cc1 | > 200 | –
27 | CC[C@@H]1C(=O)OC[C@@H]1Cc1cncn1C [PILOCARPINE] | > 200 | –
28 | CN(CCC#N)c1ccc(/C=C2\CC/C(=C\c3ccc(N(C)CCC#N)cc3)C2=O)cc1 | > 200 | –
29 | CN(C/C=C/C#CC(C)(C)C)Cc1cccc2ccccc12 [TERBINAFINE] | – | MIC (Candida albicans [2]): 439 µM (≈ 128 µg/mL)
